Test results from ChEMBL document CHEMBL1201862, “PubChem BioAssay data set” (2004).
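1) Cells in 96-well plates. 2) Compound, 48 h, 5 concentrations. 3) Linear interpolation between surrounding doses. 4) Unreached endpoint = highest concentration. GI50: concentration for 50% inhibition of growth.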 Active and inactive are the calls of the source. No stated cut-off is given here; in the data, active = GI50 up to about 1.1 µM and inactive = higher.

What was measured:
Assay in all cases: inhibition of tumour cell growth, NCI panel, 48 h
A549 = tested on: A549
EKVX = tested on: EKVX
HCC 2998 = tested on: HCC 2998
HCT-116 = tested on: HCT-116
HOP-92 = tested on: HOP-92
IGROV-1 = tested on: IGROV-1
LOX IMVI = tested on: LOX IMVI
MCF7 = tested on: MCF7
MDA-MB-231 = tested on: MDA-MB-231
MOLT-4 = tested on: MOLT-4
NCI-H226 = tested on: NCI-H226
OVCAR-3 = tested on: OVCAR-3
PC-3 = tested on: PC-3
RPMI-8226 = tested on: RPMI-8226
SNB-19 = tested on: SNB-19
SR = tested on: SR
TK-10 = tested on: TK-10
UACC-62 = tested on: UACC-62
OVCAR-5 = tested on: OVCAR-5

Structure (SMILES)	GI50 (A549)	GI50 (EKVX)	GI50 (HCC 2998)	GI50 (HCT-116)	GI50 (HOP-92)	GI50 (IGROV-1)	GI50 (LOX IMVI)	GI50 (MCF7)	GI50 (MDA-MB-231)	GI50 (MOLT-4)	GI50 (NCI-H226)	GI50 (OVCAR-3)	GI50 (PC-3)	GI50 (RPMI-8226)	GI50 (SNB-19)	GI50 (SR)	GI50 (TK-10)	GI50 (UACC-62)	GI50 (OVCAR-5)
CN1CCN(C2=CC(=O)c3c(O)ccc(O)c3C2=O)CC1	1.79 µM (inactive)	1.86 µM (inactive)	1.82 µM (inactive)	0.208 µM (active)	1.86 µM (inactive)	1.64 µM (inactive)	0.547 µM (active)	0.319 µM (active)	1.46 µM (inactive)	1.01 µM (active)	1.59 µM (inactive)	0.23 µM (active)	0.412 µM (active)	1.37 µM (inactive)	1.69 µM (inactive)	1.38 µM (inactive)	2.74 µM (inactive)	1.65 µM (inactive)	–
COC(=O)c1sc2c(c1C(=O)OC)/C(=N/C(C)(C)C)S/C2=N\C(C)(C)C	17.4 µM (inactive)	16.3 µM (inactive)	14.8 µM (inactive)	15.6 µM (inactive)	18.7 µM (inactive)	19.6 µM (inactive)	19.5 µM (inactive)	17.7 µM (inactive)	19.9 µM (inactive)	15.1 µM (inactive)	16.3 µM (inactive)	20.3 µM (inactive)	19.1 µM (inactive)	15.2 µM (inactive)	17.8 µM (inactive)	13.4 µM (inactive)	17.2 µM (inactive)	17 µM (inactive)	20.6 µM (inactive)
O=C(O)c1cc2ccccc2c2c1C(=O)c1ccccc1-2	75.9 µM (inactive)	–	> 100 µM (inactive)	> 100 µM (inactive)	50.2 µM (inactive)	58.7 µM (inactive)	> 100 µM (inactive)	98.9 µM (inactive)	> 100 µM (inactive)	> 100 µM (inactive)	> 100 µM (inactive)	50 µM (inactive)	> 100 µM (inactive)	65.8 µM (inactive)	57 µM (inactive)	99.8 µM (inactive)	> 100 µM (inactive)	45.9 µM (inactive)	> 100 µM (inactive)
Nc1nccc(NCC2(CO)CC(CCc3ccccc3)C2)n1 (stereo not drawn)	13 µM (inactive)	12.6 µM (inactive)	19.5 µM (inactive)	10.8 µM (inactive)	4.93 µM (inactive)	13.2 µM (inactive)	14.3 µM (inactive)	10 µM (inactive)	16.6 µM (inactive)	7.98 µM (inactive)	16 µM (inactive)	12.3 µM (inactive)	15.1 µM (inactive)	10.8 µM (inactive)	–	8.71 µM (inactive)	12.5 µM (inactive)	12.6 µM (inactive)	14 µM (inactive)
COc1cc(N(Cc2ccc3oc(=O)c(-c4ccccc4)nc3c2)Cc2ccc3oc(=O)c(-c4ccccc4)nc3c2)cc(OC)c1OC	> 10 µM (inactive)	> 10 µM (inactive)	> 10 µM (inactive)	> 10 µM (inactive)	> 10 µM (inactive)	> 10 µM (inactive)	> 10 µM (inactive)	> 10 µM (inactive)	> 10 µM (inactive)	> 10 µM (inactive)	> 10 µM (inactive)	> 10 µM (inactive)	> 10 µM (inactive)	> 10 µM (inactive)	> 10 µM (inactive)	> 10 µM (inactive)	> 10 µM (inactive)	> 10 µM (inactive)	> 10 µM (inactive)
COc1cc(/C=C/C(=N\NC(=S)NN)c2sc(NNC(C)=O)nc2C)ccc1O	> 100 µM (inactive)	> 100 µM (inactive)	> 100 µM (inactive)	> 100 µM (inactive)	> 100 µM (inactive)	> 100 µM (inactive)	> 100 µM (inactive)	> 100 µM (inactive)	> 100 µM (inactive)	> 100 µM (inactive)	> 100 µM (inactive)	> 100 µM (inactive)	> 100 µM (inactive)	> 100 µM (inactive)	> 100 µM (inactive)	> 100 µM (inactive)	> 100 µM (inactive)	> 100 µM (inactive)	> 100 µM (inactive)
Clc1ccccc1-c1nc2cc(C34CC5CC(CC(C5)C3)C4)ccc2[nH]1	11.4 µM (inactive)	29.1 µM (inactive)	49.3 µM (inactive)	55.1 µM (inactive)	10.5 µM (inactive)	17.3 µM (inactive)	12.4 µM (inactive)	11.2 µM (inactive)	15 µM (inactive)	79.8 µM (inactive)	25.4 µM (inactive)	–	15.1 µM (inactive)	34.2 µM (inactive)	10 µM (inactive)	20.2 µM (inactive)	19.1 µM (inactive)	13.9 µM (inactive)	17.8 µM (inactive)
CCCCCCCCCCCCCCCCNc1ccn(C2CC(O)C(COC(c3ccccc3)(c3ccccc3)c3ccc(OC)cc3)O2)c(=O)n1 (stereo not drawn)	> 100 µM (inactive)	> 100 µM (inactive)	83.6 µM (inactive)	93.5 µM (inactive)	> 100 µM (inactive)	> 100 µM (inactive)	> 100 µM (inactive)	> 100 µM (inactive)	> 100 µM (inactive)	49.3 µM (inactive)	> 100 µM (inactive)	> 100 µM (inactive)	> 100 µM (inactive)	> 100 µM (inactive)	> 100 µM (inactive)	98.4 µM (inactive)	> 100 µM (inactive)	> 100 µM (inactive)	> 100 µM (inactive)
Cc1nc2cccc(F)c2c(=O)n1-c1nnc(C(F)(F)F)s1	> 10 µM (inactive)	> 10 µM (inactive)	> 10 µM (inactive)	> 10 µM (inactive)	> 10 µM (inactive)	> 10 µM (inactive)	> 10 µM (inactive)	> 10 µM (inactive)	> 10 µM (inactive)	> 10 µM (inactive)	> 10 µM (inactive)	> 10 µM (inactive)	> 10 µM (inactive)	> 10 µM (inactive)	> 10 µM (inactive)	> 10 µM (inactive)	> 10 µM (inactive)	> 10 µM (inactive)	> 10 µM (inactive)
Cc1cc(NS(=O)(=O)c2ccc(NC(=O)c3ccc4[nH]c5ccccc5c(=O)c4c3)cc2)no1	> 100 µM (inactive)	> 100 µM (inactive)	85.3 µM (inactive)	> 100 µM (inactive)	88.3 µM (inactive)	> 100 µM (inactive)	46.5 µM (inactive)	> 100 µM (inactive)	> 100 µM (inactive)	49.8 µM (inactive)	> 100 µM (inactive)	> 100 µM (inactive)	> 100 µM (inactive)	> 100 µM (inactive)	> 100 µM (inactive)	> 100 µM (inactive)	> 100 µM (inactive)	> 100 µM (inactive)	> 100 µM (inactive)
CCCC(O)c1cn(C(NC(=O)c2ccccc2)P(=O)(OCC)OCC)nn1 (stereo not drawn)	> 100 µM (inactive)	> 100 µM (inactive)	> 100 µM (inactive)	> 100 µM (inactive)	> 100 µM (inactive)	> 100 µM (inactive)	> 100 µM (inactive)	> 100 µM (inactive)	> 100 µM (inactive)	> 100 µM (inactive)	> 100 µM (inactive)	> 100 µM (inactive)	> 100 µM (inactive)	> 100 µM (inactive)	> 100 µM (inactive)	> 100 µM (inactive)	> 100 µM (inactive)	39.4 µM (inactive)	–
C#CC1NC(=O)C1N(CC)CC (stereo not drawn)	–	> 100 µM (inactive)	> 100 µM (inactive)	> 100 µM (inactive)	> 100 µM (inactive)	> 100 µM (inactive)	> 100 µM (inactive)	> 100 µM (inactive)	> 100 µM (inactive)	> 100 µM (inactive)	> 100 µM (inactive)	> 100 µM (inactive)	> 100 µM (inactive)	> 100 µM (inactive)	> 100 µM (inactive)	> 100 µM (inactive)	> 100 µM (inactive)	> 100 µM (inactive)	> 100 µM (inactive)
Cc1ccc(S(=O)(=O)N/N=C2/CC[C@H](C(C)(C)C)C[C@@H]2C)cc1	16.4 µM (inactive)	18 µM (inactive)	18.9 µM (inactive)	14.8 µM (inactive)	16.7 µM (inactive)	14.9 µM (inactive)	14.7 µM (inactive)	18.5 µM (inactive)	21.2 µM (inactive)	12.5 µM (inactive)	13.8 µM (inactive)	12.6 µM (inactive)	18.3 µM (inactive)	33.4 µM (inactive)	18.5 µM (inactive)	31.8 µM (inactive)	16.4 µM (inactive)	15.7 µM (inactive)	18.2 µM (inactive)
NC(=O)c1csc(C2(O)COC(CO)C2O)n1 (stereo not drawn)	> 100 µM (inactive)	> 100 µM (inactive)	> 100 µM (inactive)	> 100 µM (inactive)	> 100 µM (inactive)	> 100 µM (inactive)	> 100 µM (inactive)	> 100 µM (inactive)	> 100 µM (inactive)	–	> 100 µM (inactive)	> 100 µM (inactive)	> 100 µM (inactive)	> 100 µM (inactive)	> 100 µM (inactive)	> 100 µM (inactive)	> 100 µM (inactive)	> 100 µM (inactive)	> 100 µM (inactive)
[O-][Cl+3]([O-])([O-])[O-].[O-][Cl+3]([O-])([O-])[O-].c1ccn2c(N3CCOCC3)[n+]3c4ccccc4[n+]4c(N5CCOCC5)n5ccccc5c4c3c2c1	> 100 µM (inactive)	> 100 µM (inactive)	> 100 µM (inactive)	> 100 µM (inactive)	> 100 µM (inactive)	66.2 µM (inactive)	> 100 µM (inactive)	56.1 µM (inactive)	> 100 µM (inactive)	> 100 µM (inactive)	79.4 µM (inactive)	> 100 µM (inactive)	> 100 µM (inactive)	> 100 µM (inactive)	63.2 µM (inactive)	41.3 µM (inactive)	> 100 µM (inactive)	> 100 µM (inactive)	> 100 µM (inactive)
